The text below walks through data of patent publication US8314112B2 (Novartis AG, priority 2008, dated 2012).

SMILES strings stand for the structures. Where only a bound is given, the exact number is not on record here.

The target in this assay is T1, human ALK5 (kinase domain, ALK5 T204D) (Homo sapiens, UniProt P36897, T204D).
T1 construct: The kinase domain of human ALK5 (amino acids 200-503); made in house; host or cells: insect cells (baculovirus)
T1 sequence (P36897 200-503 T204D): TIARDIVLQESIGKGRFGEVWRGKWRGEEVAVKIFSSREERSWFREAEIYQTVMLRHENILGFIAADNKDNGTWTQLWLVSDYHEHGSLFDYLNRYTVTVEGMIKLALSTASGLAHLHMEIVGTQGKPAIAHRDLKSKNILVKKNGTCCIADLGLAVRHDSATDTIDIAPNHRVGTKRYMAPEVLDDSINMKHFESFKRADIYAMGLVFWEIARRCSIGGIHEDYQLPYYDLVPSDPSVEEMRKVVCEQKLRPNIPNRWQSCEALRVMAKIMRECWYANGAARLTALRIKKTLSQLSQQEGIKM
Briefly: ALK5 kinase assay ([33P] phosphate incorporation into casein). In kind it is biochemical. The conditions noted are these: casein substrate, 1 μM unlabelled ATP. On the procedure:
The kinase activity of ALK5 is assessed by measuring radiolabelled phosphate [33P] incorporation in to the generic substrate, casein. The kinase domain of human ALK5 (amino acids 200-503) is fused to an N-terminal histidine tag. The kinase activity of ALK5 is rendered constitutive via point mutation at amino acid 204 (threonine to aspartate modification, ALK5 T204D) and the kinase construct is engineered to be expressed from a baculovirus expression construct in insect cells. The purified, recombinantly-expressed histidine-tagged ALK5 T204D protein is dissolved at 5.4 mg/ml in 50 mM Tris-HCl pH 8.0, 150 mM NaCl, 5 mM DTT. ALK5 T204D is dissolved to 2.5 μg/ml in assay buffer (Assay buffer: 20 mM Tris-HCl pH 7.4, 10 mM MgCl2, 2 mM MnCl2) on the day of use.
Test compounds and reference compounds are dissolved in assay buffer without DTT containing 5% (v/v) DMSO. Stock solutions of test and reference compounds are diluted in assay buffer with DTT (1.25 mM) containing 4.5% (v/v) DMSO. 10 μl of test or reference compound are added to the appropriate wells of 96 well U-bottomed plate. Total enzyme activity is determined by measuring ALK5 T204D activity in the absence of ALK5 kinase inhibitor reference compounds. Non-specific binding (NSB) is determined by measuring the activity of ALK5 T204D in the presence of ALK5 kinase inhibitor reference compounds. 10 μl of dephosphorylated casein stock solution (dephosphorylated casein is dissolved in ddH2O at 20 mg/ml) is added per well (200 μg/well final assay concentration). 20 μl of ALK5 T204D (2.5 μg/ml solution) is added per well (50 ng/well final assay concentration). The plates are left to incubate at room temperature for 10 minutes.
10 μl of ATP mix is added to the well to initiate the reaction (0.66 nM [^33P]ATP/1 μM unlabelled ATP/well final assay concentration). The ATP mix is prepared as follows, unlabelled ATP (3 mM) is dissolved in ddH2O and pH adjusted to 7.4. The stock concentration of [^33P]ATP is 10 μCi/μl. The appropriate volume of [^33P]ATP is added to unlabelled ATP solution such that the final assay concentration per well is 0.1 μCi. Following addition of the ATP mix, the plates are incubated at room temperature for 50 minutes. The kinase reaction is terminated by the addition of 50 μL Stop Buffer (20 mM Tris-HCl pH 7.4, 10 mM EDTA).
75 μl/well from the reaction plate is transferred to a Multiscreen-IP plate (MultiScreen-IP plates are prepared by added 50 μL of 70% (v/v) ethanol per well and incubated for 5 minutes at room temperature. The ethanol is removed by aspiration via a MultiScreen HTS Vaccum Manifold unit (Millipore, Cat no: MSVMHT500). The plates are washed twice by adding 200 μl/well ddH2O). The MultiScreen-IP plate is incubated at room temperature for 30 minutes to allowing binding of casein to the plate. The MultiScreen-IP plates are washed three times by adding 200 μl/well 100 mM phosphoric acid solution and the gasket is carefully removed from the back of the MultiScreen-IP plate and the plate dried in the oven for 30 minutes. The MultiScreen-IP plate is backsealed, 50 μL of Microscint™20 is added, then the plates are topsealed and radiolabelled casein detected and quantified on a TopCount™ plate-reader using the ^33P scintillation protocol.
As for `Cc1cccc(-c2nc(-c3cncc(NC(=O)CCO)c3)c3cc[nH]c3n2)n1` [Example 54, 3-Hydroxy-N-{5-[2-(6-methyl-pyridin-2-yl)-7H-pyrrolo[2,3-d]pyrimidin-4-yl]-pyridin-3-yl}-propionamide], the IC50 was 119 nM. Compound `Cc1cccc(-c2nc(-c3cnccc3C)c3cc[nH]c3n2)n1` [Example 55, 4-(4-Methyl-pyridin-3-yl)-2-(6-methyl-pyridin-2-yl)-7H-pyrrolo[2,3-d]pyrimidine] gave an IC50 of 813 nM.

With `Cc1cccc(-c2cc(-c3cncc4ccccc34)c3cc[nH]c3n2)n1` [Example 56, 4-[6-(6-Methyl-pyridin-2-yl)-1H-pyrrolo[2,3-b]pyridin-4-yl]-isoquinoline], the IC50 was < 70 nM. Take `Cc1cccc(-c2cc(-c3cncc(N4CCN(C)CC4)c3)c3cc[nH]c3n2)n1` [Example 57, 4-[5-(4-Methyl-piperazin-1-yl)-pyridin-3-yl]-6-(6-methyl-pyridin-2-yl)-1H-pyrrolo[2,3-b]pyridine]: the midpoint of inhibition, the IC50, lay at 271 nM. In the case of `CCOc1cncc(-c2cc(-c3cccc(C)n3)nc3[nH]ccc23)c1` [Example 58, 4-(5-Ethoxy-pyridin-3-yl)-6-(6-methyl-pyridin-2-yl)-1H-pyrrolo[2,3-b]pyridine] it was 56 nM; in that of `Cc1cccc(-c2nc(-c3cncc(-c4cccc(CN)c4)c3)c3cc[nH]c3n2)n1` [Example 59, 3-{5-[2-(6-Methyl-pyridin-2-yl)-7H-pyrrolo[2,3-d]pyrimidin-4-yl]-pyridin-3-yl}-benzylamine], 30 nM; in that of `COc1cccc(-c2cncc(-c3cc(-c4cccc(C)n4)nc4[nH]ccc34)c2)c1` [Example 60, 4-[5-(3-Methoxy-phenyl)-pyridin-3-yl]-6-(6-methyl-pyridin-2-yl)-1H-pyrrolo[2,3-b]pyridine], 96 nM. Take `Cc1cccc(-c2nc(-c3cncc(-c4ccc(CN)cc4)c3)c3cc[nH]c3n2)n1` [Example 61, 4-{5-[2-(6-Methyl-pyridin-2-yl)-7H-pyrrolo[2,3-d]pyrimidin-4-yl]-pyridin-3-yl}-benzylamine]: the IC50 came to 29 nM. In the case of `Cc1cccc(-c2cc(-c3cncc(NC(=O)CCN(C)C)c3)c3cc[nH]c3n2)n1` [Example 62, 3-Dimethylamino-N-{5-[6-(6-methyl-pyridin-2-yl)-1H-pyrrolo[2,3-b]pyridin-4-yl]-pyridin-3-yl}-propionamide] it was 40 nM; in that of `Cc1cccc(-c2cc(-c3cncc(-c4cccc(CN5CCN(C)CC5)c4)c3)c3cc[nH]c3n2)n1` [Example 63, 4-{5-[3-(4-Methyl-piperazin-1-ylmethyl)-phenyl]-pyridin-3-yl}-6-(6-methyl-pyridin-2-yl)-1H-pyrrolo[2,3-b]pyridine], 12 nM; in that of `Cc1cccc(-c2cc(-c3cncc(OC(C)C)c3)c3cc[nH]c3n2)n1` [Example 64, 4-(5-Isopropoxy-pyridin-3-yl)-6-(6-methyl-pyridin-2-yl)-1H-pyrrolo[2,3-b]pyridine], 250 nM.

In turn, `Cc1cccc(-c2cc(-c3cncc(-c4ccc(CN(C)C)cc4)c3)c3cc[nH]c3n2)n1` [Example 65, Dimethyl-(4-{5-[6-(6-methyl-pyridin-2-yl)-1H-pyrrolo[2,3-b]pyridin-4-yl]-pyridin-3-yl}-benzyl)-amine] returned an IC50 of 5 nM. In the case of `Cc1cccc(-c2cc(-c3cncc(-c4cccc(CN(C)C)c4)c3)c3cc[nH]c3n2)n1` [Example 66, Dimethyl-(3-{5-[6-(6-methyl-pyridin-2-yl)-1H-pyrrolo[2,3-b]pyridin-4-yl]-pyridin-3-yl}-benzyl)-amine] it was < 69 nM. With `Cc1cccc(-c2nc(-c3cncc(-c4cccc(CN5CCOCC5)c4)c3)c3cc[nH]c3n2)n1` [Example 67, 2-(6-Methyl-pyridin-2-yl)-4-[5-(3-morpholin-4-ylmethyl-phenyl)-pyridin-3-yl]-7H-pyrrolo[2,3-d]pyrimidine] the figure was 24 nM.
